Reference: US9925202B2, “Treatment of lymphangioleiomyomatosis” (THE BRIGHAM AND WOMEN'S HOSPITAL, INC., priority 2013, dated 2018)

Experiments:
TSC2-deficient cells = assay: COX-2 activation and prostaglandin production in TSC2-deficient cells with Torin 1; assay type: cell-based; settings: specifically to TSC2-deficient cells
[1] = system: A549 cells (Human lung adenocarcinoma); settings: reference 18; cited from earlier work
[2] = system: LAM patient-derived 621-101 cells; assay: Proliferation of 621-101 cells; assay type: cell-based, human
Experimental: (§1) Cell culture and reagents. ELT-3 cells (Eker rat uterine leiomyoma-derived) (22,23) and LAM patient-derived 621-101 cells were cultured in IIA complete medium. HeLa, U2OS and OVARC5 cells were cultured in DMEM supplemented with 10% FBS. 17-beta-estradiol (10 nM), rapamycin (20 nM, Biomols), NS398 (50 μM), aspirin (450 μM Sigma), and 15-epi-LXA4 (100 nM) were used as indicated.

[3] = system: LAM patient-derived TSC2-deficient 621-101 cells; assay: COX, phospho-protein and secreted prostaglandin levels in 621-101 cells (immunoblot, enzyme immunoassay); assay type: cell-based, human; settings: 24 hr; for COX-1 levels / COX-2 levels / phosphorylation of MAPK or S6: 50 μM NS398 or 450 μM aspirin, immunoblot
Experimental: as §1
(§2) Immunoblotting and antibodies. Cells were lysed in m-PER buffer (PIERCE). Antibodies were used: COX-1, COX-2, phospho-MAPK (T202/Y204), phospho-S6 (S235/236), Cleaved caspase 3, cleaved PARP (CELL SIGNALING), tuberin and c-Myc (SANTA CRUZ), smooth muscle actin (BIOGENEX), and beta-actin (SIGMA).
(§3) Quantification of prostaglandin levels. PGE2, 6-keto-PGF1α and creatinine were measured using enzyme immunoassay kits (Cayman Chemical). Levels of secreted prostaglandins were normalized to protein concentrations and expressed as pg/mg protein. Urinary levels of prostaglandins were normalized to creatinine levels and expressed as […].

[4] = system: tumors of TSC2-deficient LAM patient-derived cells; assay: Metastatic tumor model of LAM derived cells; assay type: in vivo, mice; settings: aspirin treatment
Experimental: Arrows indicate individual tumors.
Bioluminescent imaging was performed weekly. Tumor area was normalized to the baseline before drug administration.
FIGS. 3f and 3g show the urinary PGE2 that was quantified from mice treated with aspirin or vehicle for 7 and 30 days. *p<0.05.

LAM patients = assay: Exhaled breath condensate and lung function in LAM patients on aspirin; assay type: in vivo, human
Experimental: To examine the functional effect of COX-2 in LAM lungs, 15-epi-lipoxin A4 (LXA4), a product of aspirin-acetylated COX-2, was measured in exhaled breath condensate (EBC) from three LAM subjects (data not shown). 15-epi-LXA4 was detected in EBC and the levels were increased with aspirin (data not shown).

[5] = system: xenograft tumors of TSC2-deficient ELT3-luciferase-expressing cells; assay: Aspirin in xenograft tumor model of ELT3-luciferase-expressing cells; assay type: in vivo, mice
Experimental: Animal studies. All animal work was performed in accordance with protocols approved by the IACUC-BWH. Female intact CB17-SCID mice were used as described previously (8, 24, 25). Aspirin (100 mg/kg/day, in drinking water) treatment was initiated five weeks post-cell inoculation. Urine specimens were collected.
as §2, §3
Statistical analyses. Statistical analyses were performed using Student's t-test when comparing two groups for in vitro and in vivo studies. Two-Way ANOVO test was performed in xenograft tumor-aspirin studies. Mann Whitney tests were used for prostaglandin quantification in clinical data.
To determine whether inhibition of COX-1 and/or COX-2 impacts the growth of LAM patient-derived cells, 621-101 cells were treated with Sulindac (a COX-1 inhibitor), NS398 (a COX-2 inhibitor), or aspirin (an irreversible COX-1 and COX-2 inhibitor) for 24 hr. […] The inventors next assessed the possible benefit of aspirin in a xenograft tumor model of TSC2-deficient ELT3-luciferase-expressing cells. Aspirin treatment for two-three weeks decreased the intensity of bioluminescence (FIG. 3c), reduced the growth of xenograft tumors by 35% (FIG. 3d), and decreased the tumor size (FIG. 3e). Tumors also had reduced expression of COX-2 and c-Myc, and increased levels of cleaved-caspase-3 and cleaved-PARP (Data not shown).

[6] = LAM patients, aspirin treatment
[7] = aspirin 100 mg/kg/day in drinking water, two-three weeks
[8] = aspirin-treated mice, data not shown

CCC(=O)N1CCN(c2ccc(-n3c(=O)ccc4cnc5ccc(-c6cnc7ccccc7c6)cc5c43)cc2C(F)(F)F)CC1 [Torin 1]
COX-2 activation and prostaglandin production (TSC2-deficient cells): suppresses

CCCCC[C@@H](O)/C=C/C=C\C=C\C=C\[C@@H](O)[C@@H](O)CCCC(=O)O [15-epi-LXA4, 15-epi-lipoxin A4]
proliferation of A549 cells [1]: decreases | proliferation of LAM patient-derived 621-101 cells ([2]; 15-epi-LXA4 100 nM, data not shown): suppressed

CS(=O)(=O)Nc1ccc([N+](=O)[O-])cc1OC1CCCCC1 [NS398]
COX-1 levels [3]: reduced | COX-2 levels [3]: reduced | phosphorylation of MAPK or S6 [3]: without affecting

CC(=O)Oc1ccccc1C(=O)O [aspirin]
growth of tumors of LAM derived cells [4]: decreased | urinary prostaglandins [4]: reduction | COX-1 levels [3]: reduced | COX-2 levels [3]: reduced | phosphorylation of MAPK or S6 [3]: without affecting | PGE2 levels ([3]; aspirin 450 μM, conditioned media, ELISA): significantly decreased | lung function (LAM patients; [6]): improved | prostaglandin levels in exhaled breath condensate (LAM patients; [6]): reduced | 15-epi-LXA4 levels in exhaled breath condensate (EBC) (LAM patients; three LAM subjects, oral aspirin ingestion, data not shown): increased | proliferation of 621-101 cells ([2]; aspirin 450 μM): reduced | intensity of bioluminescence [5, 7]: decreased | reduction of growth of xenograft tumors [5, 7]: 35% | tumor size [5, 7]: decreased | urinary levels of PGE2 and 6-Keto-PGF1α ([5]; aspirin-treated mice bearing ELT3 xenograft tumors, data not shown): markedly reduced | apoptosis in xenograft tumors ([5]; aspirin-treated mice compared to vehicle-treatment): higher levels | expression of COX-2 and c-Myc in tumors [5, 8]: reduced | levels of cleaved-caspase-3 and cleaved-PARP in tumors [5, 8]: increased
